According to US20210187488A1, “A METHOD OF SYNTHESISING A PT(II) COMPLEX; A PT(II) COMPLEX; USE OF SUCH A COMPLEX AS A PHOTOACTIVATABLE CATALYST IN A HYDROSILYLATION REACTION” (JOHNSON MATTHEY PUBLIC LIMITED COMPANY, priority 2017, published 2021):
Each block holds one molecule with its values, some of them ahead of it.

Assays:
[1] = ECHA (European Chemicals Agency) website; cited from earlier work
[2] = Catalytic activity of comparative products in gelling of a siloxane polymer
Protocol: The brown solution gave an orange oil which was tested for catalytic activity in gelling of a siloxane polymer.
A 16.13 wt % aqueous solution of Pt(IV) nitrate (2.624 g, 2.17 mmol) was added to deionised water (50 mL) and a mixture of salicylaldehyde (2.45 mL, 2.8 g, 22.8 mmol) and NaHCO3 (0.765 g, 9.12 mmol) in EtOH (15 mL) was then added. The reaction mixture gave off gas and produced an orange precipitate. Stirring was continued at room temperature for 2 hours. The reaction mixture was then filtered to give an orange precipitate and an orange solution. The precipitate was washed with water and diethylether. […] The product was tested for catalytic activity but none was found. […] The major product appeared to be Pt^IV(HCO3)4.

[3] = Catalytic activity: time until gelling of siloxane composition after 60 s UV irradiation or in the dark; details: for Gelling time: 60 s UV
Protocol: The product of Example 3 was tested for catalytic activity.
5 mg of the product was dissolved in 1 mL dichloromethane to provide a solution (‘Solution A’).
The following ingredients were added to a UV-grade plastic cuvette: • vinyl terminated polydimethyl siloxane 100 cSt DMS V21 (2g); • (45-55% methylhydrosiloxane)dimethylsiloxane copolymer 10-15 cSt HMS-501 (0.108 mL); • Solution A (25 μL).
The contents of the cuvette were stirred briefly with a spatula to ensure thorough mixing and a 10 mm magnetic flea was added, before sealing with parafilm.
The cuvette was placed in a UV-lamp box. The positioning of samples in the box was kept the same throughout testing (154 mm from ground to top of cuvette; 114 mm between end of housing and front of cuvette).
A 300 W ozone-free Xenon lamp was used (visible to 300 nm). A water-cooled filter removes some of the visible spectrum.
The stirrer speed was set to the 12 o'clock position and the lamp was switched on for 60 seconds only. The time taken from the switching on of the lamp to the stirrer no longer being able to complete a turn was noted as a measure of activity.
Results are provided in the Table below. ‘Irradiated’ indicates samples exposed to the 60 s UV radiation. ‘Dark’ indicates samples left in darkness without any irradiation.
(§1) All other aspects of the test were the same as Example 16. The results reflect gelling time after the 60 s UV irradiation.
The testing was done as in Example 16, except that in the initial step the following four solutions were prepared:
Different amounts of the respective solutions, as shown in the Tables below, were added to the cuvette but all other aspects of the test were the same as Example 16.
as §1

[4] = Qualitative solubility observations; format: physicochemical
Protocol: Stirring was continued at room temperature for 2 hours. […] The precipitate was washed with water and diethylether.
An excess of salicylaldehyde (2 mL, 2.28 g, 18.62 mmol) in EtOH (20 mL) was added and the reaction mixture was heated at 73° C. overnight.
Five different samples were studied: • 1. Vinyl-terminated polydimethylsiloxane 100 cSt • 2.

[5] = Solubility in various solvents, Pt content by ICP-AES; format: physicochemical; details: 10 mg in 1 mL, room temperature, 3 h, filtered
Protocol: The solubility of the product of Example 3 was tested in various solvents.
In each case, 10 mg of the complex was stirred in 1 mL of each solvent at room temperature for three hours. The solvent was then filtered. One hundred fold dilutions of the samples into methoxypropanol were then carried out and Pt content was determined by ICP-AES using a Spectro Ciros Vision ICP-OES. Yttrium was employed as an internal standard at a concentration of 5 ppm.

[6] = Stability in dichloromethane during crystal growth; format: physicochemical; details: dichloromethane (DCM/hexane crystal growth, one week)
Excerpt: The following different methods were attempted in order to provide suitable crystals for testing. • 1. Growth in acetone/water medium. […] Growth in DCM/hexane. This formed two distinct layers with slow mixing occurring at the interface. […] Growth in chloroform/hexane. This formed two distinct layers with slow mixing occurring at the interface. Slightly larger crystals were formed, but still too small. It took longer for the product to turn brown. • 4. Growth in chloroform: The product was dissolved in chloroform with heating, and immediately filtered before being stored in the freezer. Needle like crystals were formed • 5. Growth in chloroform/hexane in freezer. Needle like crystals were formed

[7] = Thermogravimetric analysis (thermal stability); format: physicochemical; details: TGA
Excerpt: (which is the boiling point for salicylaldehyde). Above this temperature the ligand is lost, leaving behind the platinum metal.

[8] = 25 μL of toluene solution, 1.77 mM
[9] = 50 μL of toluene solution, 1.77 mM
[10] = 75 μL of toluene solution, 1.77 mM
[11] = 200 μL of toluene solution, 1.77 mM
[12] = 360 μL of toluene solution, 1.77 mM

Molecule: CC1=[C-]CC=C1.[CH3-].[CH3-].[CH3-].[Pt+4] [(MeCp)PtMe3]
Hazard classification [1]: fatal if swallowed, fatal in contact with skin, very toxic to aquatic life, causes serious eye irritation, may cause an allergic skin reaction, causes skin irritation and may cause respiratory irritation

Molecule: O=C([O-])O.O=C([O-])O.O=C([O-])O.O=C([O-])O.[Pt+4] [Comparative Example 6, Pt^IV(HCO3)4]
Catalytic activity [2]: none

Molecule: CC(=O)/C=C(/C)O.CC(=O)/C=C(/C)O.[Pt] [Solution C, Pt(acac)2]
Gelling time ([3]; 25 μL of DCM solution, 14.4 mM): 1234 s
Gelling time ([3]; 50 μL of DCM solution, 14.4 mM): 719 s
Gelling time ([3]; 75 μL of DCM solution, 14.4 mM): 506 s
Gelling time ([3]; 100 μL of DCM solution, 14.4 mM): 535 s

Molecule: CC(=O)/C=C(/C)O.CC(=O)/C=C(/C)O.[Pt] [Solution E, Pt(acac)2]
Gelling time [3, 8]: 3544 s
Gelling time [3, 9]: 1350 s
Gelling time [3, 10]: 938 s
Gelling time ([3]; 100 μL of toluene solution, 1.77 mM): 793 s
Gelling time [3, 11]: 551 s
Gelling time [3, 12]: 486 s

Molecule: Pt(sal)2 [Example 1]
Solubility (note on sample) ([4]; 1 mg/mL in acetone): saturated solution, prone to some precipitation
Solubility (note on sample) ([4]; 1 mg/mL in vinyl-terminated polydimethylsiloxane): poor solubility, solution very cloudy and prone to precipitation

Stability in solvent [6]: not completely stable
Thermal stability, stable up to [7]: up to 200 °C
Molecule: Pt(sal)2 [Example 3]
Pt concentration ([5]; Acetone:MeCN (1:1)): 698 mg/L
Pt concentration ([5]; Acetone): 646 mg/L
Pt concentration ([5]; Chloroform): 3260 mg/L
Pt concentration ([5]; EtOH): 103 mg/L
Pt concentration ([5]; IPA): 43.4 mg/L
Pt concentration ([5]; MIBK): 369 mg/L
Pt concentration ([5]; MeCN:DMSO (80:20)): 1220 mg/L
Pt concentration ([5]; MeCN): 588 mg/L
Pt concentration ([5]; Toluene): 346 mg/L
Pt concentration ([5]; Water:MeCN (1:1)): 167 mg/L
Pt concentration ([5]; Water): 42.1 mg/L
Time until gelling ([3]; dark, no irradiation, 25 μL of 5 mg in 1 mL dichloromethane): 13,500 s
Time until gelling ([3]; irradiated (60 s UV), 25 μL of 5 mg in 1 mL dichloromethane): 165 s

Molecule: Pt(sal)2 [Example 7]
Time until gelling ([3]; after 60 s UV irradiation, 11 mg in 1 mL dichloromethane): 208 s

Solubility ([4]; MeOH (washing)): only very slightly soluble
Molecule: Pt(sal)2 [Example 9]

Molecule: Pt(sal)2 [Solution D]
Gelling time [3, 8]: 1263 s
Gelling time [3, 9]: 627 s
Gelling time [3, 10]: 415 s
Gelling time [3, 11]: 231 s
Gelling time [3, 12]: 126 s
